From ChEMBL document CHEMBL1201862, “PubChem BioAssay data set” (2004)
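Results reflect a 48-hour exposure of cells in 96-well plates to compound at five concentrations. GI50 is the concentration that inhibits growth by half.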 Calls of active or inactive are those of the source. Cut-off read from the data, not from the text of the source: active = GI50 up to about 1.1 µM and inactive = higher.

Assays:
Assay in all cases: NCI-60 cell line screen, 48 h
LXFL 529 = system: LXFL 529
KM-20L2 = system: KM-20L2
SNB-78 = system: SNB-78
DLD-1 = system: DLD-1
DMS-114 = system: DMS-114
HOP-18 = system: HOP-18
XF498 = system: XF498
DMS-273 = system: DMS-273
RXF 631 = system: RXF 631

Compound	GI50 (LXFL 529)	GI50 (KM-20L2)	GI50 (SNB-78)	GI50 (DLD-1)	GI50 (DMS-114)	GI50 (HOP-18)	GI50 (XF498)	GI50 (DMS-273)	GI50 (RXF 631)
O=C(O)c1cc(=O)c2cc(C(=O)c3cccs3)c(Cl)c(Cl)c2o1	> 100 µM (inactive)	> 100 µM (inactive)	> 100 µM (inactive)	> 100 µM (inactive)					
COc1cc(/N=N\c2ccc(OC)c(S(=O)(=O)O)c2)c(C)cc1/N=N\c1ccc(/C=C/c2ccc(/N=[N+](/[O-])c3ccc(/C=C/c4ccc(/N=N/c5cc(C)c(/N=N\c6ccc(OC)c(S(=O)(=O)O)c6)cc5OC)cc4S(=O)(=O)O)c(S(=O)(=O)O)c3)cc2S(=O)(=O)O)c(S(=O)(=O)O)c1		95.1 µM (inactive)	> 100 µM (inactive)	> 100 µM (inactive)	> 100 µM (inactive)	> 100 µM (inactive)	> 100 µM (inactive)	> 68.1 µM (inactive)	
CC(C)CC(N)C(=O)OCN1C(=O)C2C3C=CC(C2C1=O)C1C2C(=O)N(COC(=O)C(N)CC(C)C)C(=O)C2C31 (stereo not drawn)	> 100 µM (inactive)	> 100 µM (inactive)	> 100 µM (inactive)	> 86.7 µM (inactive)	> 62.1 µM (inactive)	> 100 µM (inactive)		97.3 µM (inactive)	> 100 µM (inactive)
COc1ccc(CCc2cc(OC)c(O)c(OC)c2)cc1	54.8 µM (inactive)	> 100 µM (inactive)	30.9 µM (inactive)	60.1 µM (inactive)	29 µM (inactive)		79.4 µM (inactive)	46.5 µM (inactive)	88.1 µM (inactive)
COc1ccc(OC)c2c1C(=O)C1CC1(Br)C2=O (stereo not drawn)	> 100 µM (inactive)	> 100 µM (inactive)		> 100 µM (inactive)	> 100 µM (inactive)		> 100 µM (inactive)	> 100 µM (inactive)	
NC(=O)c1ccc([N+](=O)[O-])cc1	> 100 µM (inactive)	> 100 µM (inactive)	> 100 µM (inactive)	> 100 µM (inactive)	> 100 µM (inactive)		> 100 µM (inactive)	> 100 µM (inactive)	> 100 µM (inactive)
COc1cccc(N2C(=O)[C@H]3CC(C)c4c([nH]c5ccccc45)[C@H]3C2=O)c1 (stereo partly drawn)	42.8 µM (inactive)	> 100 µM (inactive)	33.3 µM (inactive)	80.5 µM (inactive)			55.7 µM (inactive)	79.4 µM (inactive)	
COCCN1C2=CCCCC2=Nc2c(N)nc(N)nc21	> 100 µM (inactive)	> 100 µM (inactive)	> 100 µM (inactive)	> 100 µM (inactive)	> 100 µM (inactive)	> 100 µM (inactive)	> 100 µM (inactive)	> 100 µM (inactive)	> 100 µM (inactive)
COc1cc2c(c(OC)c1OC)-c1cccc(=O)cc1C(NC(C)=O)CC2 (stereo not drawn)	0.125 µM (active)	0.12 µM (active)	0.0859 µM (active)		0.0685 µM (active)	> 100 µM (inactive)	0.117 µM (active)	0.0509 µM (active)	
COc1cccc2c1C(=O)c1c(O)c3c(c(O)c1C2=O)C[C@@](O)(C(C)=O)C[C@@H]3OC1CC(O)C(O)C(C)O1 (stereo partly drawn)	2.79 µM (inactive)	2.69 µM (inactive)	4.42 µM (inactive)	1.46 µM (inactive)		1.39 µM (inactive)		0.253 µM (active)	
COc1ccc(OC)c(NC(=O)C(=O)NNC(=O)c2sc(NNC(C)=O)nc2C)c1	29.4 µM (inactive)	33.4 µM (inactive)	27 µM (inactive)				25.6 µM (inactive)		
CC#CC1C2CCCC1(CSc1ccccc1)NC(=O)O2 (stereo not drawn)	> 100 µM (inactive)	> 100 µM (inactive)	> 100 µM (inactive)	> 100 µM (inactive)	> 100 µM (inactive)	> 100 µM (inactive)	> 100 µM (inactive)	> 100 µM (inactive)	> 100 µM (inactive)
O=c1c2ccccc2nc(-c2ccccc2)n1NC(=S)Nc1ccc(Cl)cc1[N+](=O)[O-]	> 100 µM (inactive)			87.9 µM (inactive)	31.2 µM (inactive)	27.4 µM (inactive)		49.8 µM (inactive)	
COc1ccc(COCC(Cn2ccnc2)OCc2ccc(C(=O)O)cc2)cc1 (stereo not drawn)	> 100 µM (inactive)	> 100 µM (inactive)	> 100 µM (inactive)	> 100 µM (inactive)	> 100 µM (inactive)		> 100 µM (inactive)		> 100 µM (inactive)
COC(=O)C1Cc2c([nH]c3ccccc23)C(c2ccccc2O)N1Cc1ccccc1 (stereo not drawn)	31.5 µM (inactive)	> 46.5 µM (inactive)	34 µM (inactive)	74 µM (inactive)	19.8 µM (inactive)	31.6 µM (inactive)		23.8 µM (inactive)	21.2 µM (inactive)
CCCCC1CC(c2ccc(Cl)cc2)=NO1 (stereo not drawn)	> 100 µM (inactive)		> 100 µM (inactive)	> 100 µM (inactive)	> 100 µM (inactive)	> 100 µM (inactive)		> 100 µM (inactive)	
c1cc2[se][se]c3c4cccc5[se][se]c(c(c1)c23)c54	> 100 µM (inactive)	> 100 µM (inactive)	> 100 µM (inactive)	> 100 µM (inactive)	> 100 µM (inactive)	0.331 µM (active)	> 100 µM (inactive)	> 100 µM (inactive)	
CSc1ccc(/C=C2/C[N+](C)(C)C/C(=C/c3ccc(SC)cc3)C2=O)cc1			62.2 µM (inactive)	7.78 µM (inactive)	6.44 µM (inactive)	31.8 µM (inactive)	15.7 µM (inactive)		35.2 µM (inactive)
Cn1nc(-c2ccccc2)c(C(=O)/C=C/c2ccc(F)cc2)c(N2CCCC2)c1=O	12.8 µM (inactive)	13.1 µM (inactive)		11.2 µM (inactive)	11.5 µM (inactive)	14.6 µM (inactive)	20.8 µM (inactive)	14.8 µM (inactive)	
C=C1C(=O)OC2/C=C(\C)C3OC3/C=C(/C(=O)OC)C(O)C(OC(=O)C3(C)OC3C)C12 (stereo not drawn)	1.36 µM (inactive)		1.79 µM (inactive)	1.03 µM (active)	0.435 µM (active)			1.59 µM (inactive)	
Cc1ccccc1-n1c(C)nc2c1C(=O)c1ccccc1C2=O			58.2 µM (inactive)		31.1 µM (inactive)			42.5 µM (inactive)	
N=C1C=CC(=C(c2ccc(N)cc2)c2ccc(N)cc2)C=C1	1.57 µM (inactive)	4.3 µM (inactive)	4.14 µM (inactive)	5.12 µM (inactive)	2.18 µM (inactive)		2.38 µM (inactive)		
